For 1 compound, IC50 results are on record in ChEMBL document CHEMBL3639059, “Pyrazolothiazole compound” (2013).

The test addresses T1, Corticotropin-releasing factor receptor 1 (Homo sapiens, UniProt P34998).
T1 sequence (P34998 whole entry): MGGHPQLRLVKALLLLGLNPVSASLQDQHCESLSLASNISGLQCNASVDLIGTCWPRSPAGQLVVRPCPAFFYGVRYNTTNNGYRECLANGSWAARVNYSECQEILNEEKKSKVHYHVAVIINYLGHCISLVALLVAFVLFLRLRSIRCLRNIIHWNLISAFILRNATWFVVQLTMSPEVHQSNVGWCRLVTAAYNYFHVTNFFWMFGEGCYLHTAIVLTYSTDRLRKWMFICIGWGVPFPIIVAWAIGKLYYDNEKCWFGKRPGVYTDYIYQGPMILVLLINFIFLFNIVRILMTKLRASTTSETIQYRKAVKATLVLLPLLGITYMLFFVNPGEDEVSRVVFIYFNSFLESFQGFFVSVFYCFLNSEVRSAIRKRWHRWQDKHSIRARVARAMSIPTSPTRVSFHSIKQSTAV
In words: Binding Assay: A binding competition experiment with CRF was conducted by the SPA (GE Healthcare) method using a 96-well plate.

Usually IC50 stands for the midpoint of a concentration-inhibition curve.

`CCCN(c1c(OC)nn2c(-c3c(OC)cc(Cl)cc3OC)csc12)C1CCOCC1` returned a 50% inhibitory concentration (IC50) of 0.074 µM.
